Several values for one entry are separate records, joined by “and”; a condition that tells them apart may be missing. Identical values can stand only once. Counter-ions that a name gives are not always drawn.
What was measured:
[1] = cited from earlier work
[2] = subcutaneous implants, end of the third month
[3] = Release rates of active agents from Tecophilic, Tecoflex and Carbothane polyurethane implants (Example 6); type: physicochemical
[4] = cited from earlier work; remark: listed apart in the source
[5] = In vitro elution of naltrexone from Tecophilic HP-60D-35 polyurethane implants (Example 2); type: physicochemical; details: HP-60D-35 implants -1, -2, -3, in vitro
Protocol: HP-60D-35 is extruded to tubes with thickness of 0.30 mm with inside diameter of 1.75 mm. The tubes are then cut into 32 mm in length. One side of the tube is sealed with heat using a heat sealer. The sealing time is less than one minute. Six pellets of naltrexone are loaded into the tubes and both open sides of the tubes are sealed with heat. Each pellet weighs approximately 15.0 mg for a total of 91 mg. The second end open of the tube is sealed with heat in the same way as for the first end. The loaded implant is then conditioned and primed. The conditioning takes place at room temperature in a 0.9% saline solution for one week. Upon completion of the conditioning, the implant undergoes priming. The priming takes place at room temperatures in a 1.8% saline solution for one week. Each implant is tested in vitro in a medium selected to mimic the pH found in the human body. The temperature of the selected medium was kept at approximately 37° C. during the testing. The release rates are shown on FIG. 5 and Table 3.

[6] = In vitro elution of histrelin from Tecophilic HP-60D-20 polyurethane implant (Example 1); type: physicochemical; details: HP-60D-20 implant
Source text: HP-60D-20 is extruded to tubes with thickness of 0.30 mm with inside diameter of 1.75 mm. The tubes are then cut into 25 mm in length. One side of the tube is sealed with heat using a heat sealer. The sealing time is less than one minute. Four pellets of histrelin acetate are loaded into the tube. […] Each pellet is comprised of a mixture of 98% histrelin and 2% stearic acid. The second end open of the tube is sealed with heat in the same way as for the first end. The loaded implant is then conditioned and primed. The conditioning takes place at room temperature in a 0.9% saline solution for one day. Upon completion of the conditioning, the implant undergoes priming. The priming takes place at room temperatures in a 1.8% saline solution for one day. Each implant is tested in vitro in a medium selected to mimic the pH found in the human body. The temperature of the selected medium was kept at approximately 37° C. during the testing. The release rates are shown on FIG. 4 and Table 2.

[7] = Carbothane PC-3595A, F.M.: 4,500

## C[C@@H]1C[C@H]2[C@@H]3CCC4=CC(=O)C=C[C@]4(C)[C@@]3(F)[C@@H](O)C[C@]2(C)[C@@]1(O)C(=O)CO [Dexamethasone]
[1]
  Log P: Log P = 1.93

## Cc1nc2n(c(=O)c1CCN1CCC(c3noc4cc(F)ccc34)CC1)CCCC2 [Risperidone]
[2]
  risperidone level in the dog plasma: still present at a high level
[3]; Carbothane PC-3575A, F.M.: 620
  non-normalized release rate: 40 µg/day
[3]; [7]
  non-normalized release rate: 11 µg/day
[3]; Tecoflex EG 100A, F.M.: 10,000
  non-normalized release rate: 8 µg/day
[3]; Tecoflex EG-65D, F.M.: 37,000
  non-normalized release rate: 2 µg/day
[3]; Tecoflex EG-85A, F.M.: 2,300
  non-normalized release rate: 150 µg/day
[3]; Tecophilic HP-60D-20, 15% EWC
  non-normalized release rate: 150 µg/day
[1]
  Log P: Log P = 3.28

## C[C@@H](O)[C@@H]1NC(=O)[C@H](CCCCN)NC(=O)[C@@H](Cc2c[nH]c3ccccc23)NC(=O)[C@H](Cc2ccccc2)NC(=O)[C@@H](NC(=O)[C@H](N)Cc2ccccc2)CSSC[C@@H](C(=O)N[C@H](CO)[C@@H](C)O)NC1=O [Octreotide Acetate]
[3]; Tecoflex EG-85A, F.M.: 2,300
  non-normalized release rate: 30 µg/day
  release rate normalized to surface area of the implant: 16 μg/day/cm^2
[3]; Tecophilic HP-60D-05, 5.5% EWC
  non-normalized release rate: 0 µg/day
  release rate normalized to surface area of the implant: 0 μg/day/cm^2
[3]; Tecophilic HP-60D-10, 8.7% EWC
  non-normalized release rate: 25 µg/day
  release rate normalized to surface area of the implant: 11 μg/day/cm^2
[3]; Tecophilic HP-60D-20, 15% EWC
  non-normalized release rate: 1500 µg/day
  release rate normalized to surface area of the implant: 758 μg/day/cm^2
[3]; Tecophilic HP-60D-35, 24% EWC
  non-normalized release rate: 4000 µg/day
  release rate normalized to surface area of the implant: 2022 μg/day/cm^2
[4]
  Relative Water Solubility: Very soluble,

## Cc1ccccc1N1C(=O)c2cc(S(N)(=O)=O)c(Cl)cc2NC1C (stereo not drawn) [Metolazone]
[3]; Carbothane PC-3575A, F.M.: 620
  non-normalized release rate: 20 µg/day
  release rate normalized to surface area of the implant: 8.4 μg/day/cm^2
[3]; [7]
  non-normalized release rate: 6.1 µg/day
  release rate normalized to surface area of the implant: 2.6 μg/day/cm^2
[3]; Tecoflex EG 100A, F.M.: 10,000
  non-normalized release rate: 5.5 µg/day
  release rate normalized to surface area of the implant: 2.3 μg/day/cm^2
[3]; Tecoflex EG-85A, F.M.: 2,300
  non-normalized release rate: 77 µg/day
  release rate normalized to surface area of the implant: 32 μg/day/cm^2
[3]; Tecophilic HP-60D-20, 15% EWC
  non-normalized release rate: 124 µg/day
  release rate normalized to surface area of the implant: 50 μg/day/cm^2
[1]
  Log P: Log P = 2.50

## Clc1cccc(Cl)c1N=C1NCCN1 [Clonidine Base]
[3]; Carbothane PC-3575A, F.M.: 620
  non-normalized release rate: 400 µg/day
  release rate normalized to surface area of the implant: 202 μg/day/cm^2
[3]; [7]
  non-normalized release rate: 270 µg/day
  release rate normalized to surface area of the implant: 136 μg/day/cm^2
[3]; Tecoflex EG 100A, F.M.: 10,000
  non-normalized release rate: 175 µg/day
  release rate normalized to surface area of the implant: 88 μg/day/cm^2
[3]; Tecoflex EG-65D, F.M.: 37,000
  non-normalized release rate: 50 µg/day
  release rate normalized to surface area of the implant: 25 μg/day/cm^2
[3]; Tecoflex EG-85A, F.M.: 2,300
  non-normalized release rate: 2000 µg/day
  release rate normalized to surface area of the implant: 1053 μg/day/cm^2
[3]; Tecophilic HP-60D-20, 15% EWC
  non-normalized release rate: 2000 µg/day
  release rate normalized to surface area of the implant: 1011 μg/day/cm^2
[1]
  Log P: Log P = 2.56

## C#CCN(C)[C@H](C)Cc1ccccc1 [Selegiline HCL]
[3]; Carbothane PC-3575A, F.M.: 620
  non-normalized release rate: 70 µg/day
  release rate normalized to surface area of the implant: 36 μg/day/cm^2
[3]; [7]
  non-normalized release rate: 30 µg/day
  release rate normalized to surface area of the implant: 15 μg/day/cm^2
[3]; Tecoflex EG 100A, F.M.: 10,000
  non-normalized release rate: 14 µg/day
  release rate normalized to surface area of the implant: 7.2 μg/day/cm^2
[3]; Tecoflex EG-65D, F.M.: 37,000
  non-normalized release rate: 8 µg/day
  release rate normalized to surface area of the implant: 4.1 μg/day/cm^2
[3]; Tecoflex EG-85A, F.M.: 2,300
  non-normalized release rate: 3000 µg/day
  release rate normalized to surface area of the implant: 1518 μg/day/cm^2
[3]; Tecophilic HP-60D-20, 15% EWC
  non-normalized release rate: 600 µg/day
  release rate normalized to surface area of the implant: 294 μg/day/cm^2

## O=C1CC[C@@]2(O)[C@H]3Cc4ccc(O)c5c4[C@@]2(CCN3CC2CC2)[C@H]1O5 [Naltrexone Base]
[3]; [7]
  non-normalized release rate: 25 µg/day
  release rate normalized to surface area of the implant: 5.5 μg/day/cm^2
[3]; Tecoflex EG 100A, F.M.: 10,000
  non-normalized release rate: 55 µg/day
  release rate normalized to surface area of the implant: 23 μg/day/cm^2
[3]; Tecophilic HP-60D-05, 5.5% EWC
  non-normalized release rate: 50 µg/day
  release rate normalized to surface area of the implant: 12.7 μg/day/cm^2
[3]; Tecophilic HP-60D-10, 8.7% EWC
  non-normalized release rate: 500 µg/day
  release rate normalized to surface area of the implant: 127 μg/day/cm^2
[3]; Tecophilic HP-60D-20, 15% EWC
  non-normalized release rate: 1000 µg/day
  release rate normalized to surface area of the implant: 263 μg/day/cm^2
[3]; Tecophilic HP-60D-35, 24% EWC
  non-normalized release rate: 1500 µg/day
  release rate normalized to surface area of the implant: 704 μg/day/cm^2
[3]; Tecophilic HP-60D-60, 31% EWC
  non-normalized release rate: 2200 µg/day
  release rate normalized to surface area of the implant: 883 μg/day/cm^2
[5]; week 1 of release
  Naltrexone Elution Rates: 1529.26 µg/day and 767.38 µg/day and 1400.95 µg/day
[5]; week 2 of release
  Naltrexone Elution Rates: 1511.77 µg/day and 1280.03 µg/day and 1498.86 µg/day
[5]; week 3 of release
  Naltrexone Elution Rates: 1456.01 µg/day and 1635.97 µg/day and 1449.49 µg/day
[5]; week 4 of release
  Naltrexone Elution Rates: 1378.27 µg/day and 1607.13 µg/day and 1500.42 µg/day
[5]; week 5 of release
  Naltrexone Elution Rates: 1393.05 µg/day and 1614.52 µg/day and 1558.37 µg/day
[5]; week 6 of release
  Naltrexone Elution Rates: 1321.71 µg/day and 1550.39 µg/day and 1436.03 µg/day
[5]; week 7 of release
  Naltrexone Elution Rates: 1273.07 µg/day and 1424.24 µg/day and 1300.73 µg/day
[5]; week 8 of release
  Naltrexone Elution Rates: 1172.82 µg/day and 1246.48 µg/day and 1221.57 µg/day
[1]
  Log P: Log P = 2.07

## CCNC(=O)[C@@H]1CCCN1C(=O)[C@H](CCCNC(=N)N)NC(=O)[C@H](CC(C)C)NC(=O)[C@@H](Cc1cn(Cc2ccccc2)cn1)NC(=O)[C@H](Cc1ccc(O)cc1)NC(=O)[C@H](CO)NC(=O)[C@H](Cc1c[nH]c2ccccc12)NC(=O)[C@H](Cc1cnc[nH]1)NC(=O)[C@@H]1CCC(=O)N1 [Histrelin Acetate]
[3]; [7]
  non-normalized release rate: 0.4 µg/day
  release rate normalized to surface area of the implant: 0.2 μg/day/cm^2
[3]; Tecoflex EG 100A, F.M.: 10,000
  non-normalized release rate: 0.5 µg/day
  release rate normalized to surface area of the implant: 0.3 μg/day/cm^2
[3]; Tecophilic HP-60D-20, 15% EWC
  non-normalized release rate: 150 µg/day
  release rate normalized to surface area of the implant: 93 μg/day/cm^2
[3]; Tecophilic HP-60D-35, 24% EWC
  non-normalized release rate: 400 µg/day
  release rate normalized to surface area of the implant: 248 μg/day/cm^2
[3]; Tecophilic HP-60D-60, 31% EWC
  non-normalized release rate: 500 µg/day
  release rate normalized to surface area of the implant: 309 μg/day/cm^2
[6]; week 1 of elution
  Histrelin Elution Rates: 451.733 µg/day
[6]; week 2 of elution
  Histrelin Elution Rates: 582.666 µg/day
[6]; week 3 of elution
  Histrelin Elution Rates: 395.9 µg/day
[6]; week 4 of elution
  Histrelin Elution Rates: 310.29 µg/day
[6]; week 5 of elution
  Histrelin Elution Rates: 264.92 µg/day
[6]; week 6 of elution
  Histrelin Elution Rates: 247.17 µg/day
[6]; week 7 of elution
  Histrelin Elution Rates: 215.93 µg/day
[6]; week 8 of elution
  Histrelin Elution Rates: 201.78 µg/day
[6]; week 9 of elution
  Histrelin Elution Rates: 183.22 µg/day
[6]; week 10 of elution
  Histrelin Elution Rates: 174.99 µg/day
[6]; week 11 of elution
  Histrelin Elution Rates: 167.72 µg/day
[6]; week 12 of elution
  Histrelin Elution Rates: 158.37 µg/day
[6]; week 13 of elution
  Histrelin Elution Rates: 153.95 µg/day
[6]; week 14 of elution
  Histrelin Elution Rates: 146.46 µg/day
[6]; week 15 of elution
  Histrelin Elution Rates: 139.83 µg/day
[6]; week 16 of elution
  Histrelin Elution Rates: 129.6 µg/day
[6]; week 17 of elution
  Histrelin Elution Rates: 124.46 µg/day
[6]; week 18 of elution
  Histrelin Elution Rates: 118.12 µg/day
[6]; week 19 of elution
  Histrelin Elution Rates: 120.35 µg/day

— patent US8460274B2, “Long term drug delivery devices with polyurethane-based polymers and their manufacture” (Endo Pharmaceuticals Solutions Inc., priority 2008, dated 2013)
